System: LNCaP (with membrane receptors FOLH1)
Assay: In vitro cytotoxic activity by MTT assay, LNCaP cells
Type: cell-based
Conditions: LNCaP human prostate adenocarcinoma cells, 72 hours, DTX equivalent concentration, n = 3, read-out: IC50 (mean ± SD)
Experimental: The in vitro cytotoxic activity of the theranostic system was determined by the 3-[4,5-dimethylthiazol-2-yl]-2,5-diphenyltetrazolium (MTT) bromide test. In these assays, the proliferation of living cells is determined via mitochondrial dehydrogenase activity: viable mitochondria reduce MTT by generating MTT-formazan crystals that are quantifiable by visible spectrophotometry.
Two types of human prostate adenocarcinoma cell lines were used for these assays: LNCaP (with membrane receptors FOLH1, PROTEIN DATA BANK ID FOLH1: 1Z8L) and PC3 (without FOLH1 receptors).
The cells are seeded in 96-well plates at a rate of 10,000 cells/well in both cases, 24 h before incorporating the nanoparticles. Aliquots of 3 mg ml-^1 of DTX in DMSO are prepared and kept at −20° C. When required, an aliquot is thawed, and working aliquots (100 μg/ml by dilution in enriched RPMI medium) are prepared. Alternatively, aliquots of 100 μg/mL DTX are prepared in enriched RPMI medium and kept at −20° C. until required. […]
At the end of the incubation period, 10 μl (5 mg/ml) of the MTT solution are added to each well and 4 hours later the formazan crystals are dissolved with isopropanol, and the absorbance at 570 nm is measured. The percentage of cell survival relative to untreated cells is determined and the values of IC50 from the curve DTX concentration-(%) live cells are calculated.

CC(=O)O[C@@]12CO[C@@H]1C[C@H](O)[C@@]1(C)C(=O)[C@H](O)C3=C(C)[C@@H](OC(=O)[C@H](O)[C@@H](NC(=O)OC(C)(C)C)c4ccccc4)C[C@@](O)([C@@H](OC(=O)c4ccccc4)[C@H]21)C3(C)C [DTX, docetaxel]
IC50: 0.8 ± 0.2 mg/L

Reference: patent publication US20230144838A1, “THERANOSTIC SYSTEM FOR DIRECTED DIFFUSION OF THERAPEUTIC AND IMAGING AGENTS TO CANCER CELLS” (UNIVERSITAT POLITÈCNICA DE VALÈNCIA, priority 2019, published 2023)
